From article PMC9161616, “A first-in-human phase 1/2 study of FGF401 and combination of FGF401 with spartalizumab in patients with hepatocellular carcinoma or biomarker-selected solid tumors” (Journal of Experimental & Clinical Cancer Research : CR, 2022)
“Also recorded” adds a separate entry of the source.

Assays:
[1] = tested on: patients with HCC or other solid malignancies
Protocol: FGF401 was administered per oral under fasted condition or with low-fat meal on a continuous once daily (qd) regimen for both FGF401 single agent and in combination with spartalizumab. A 300-mg intravenous infusion of spartalizumab was administered once every three weeks (q3w) and 1 treatment cycle was defined as 21 days. The study treatment was administered until the patient experienced unacceptable toxicity, progressive disease and/or the treatment was discontinued at investigator’s discretion or patient’s withdrawal of consent. Figure 1 summarizes the study design and visit flow.
The secondary endpoints characterizing safety, efficacy, pharmacokinetics (PK), immunogenicity, and food effect properties of the FGF401 and the combination were based on the assessments on their respectively defined population sets. Adverse events (AEs) that emerged during treatment were monitored throughout the study until 30 days after discontinuation of the single agent and 150 days after discontinuation of the combination. Adverse events were coded using the Medical Dictionary for Regulatory Activities (MedDRA) and assessed as per Common Terminology Criteria for Adverse Events (CTCAE) version 4.03. The clinical laboratory assessments were collected no later than 30 days after the last date of study treatment administration. The grades were classified as low/normal/high when not defined by CTCAE v4.03. Other assessments of vital signs, physical examinations, and electrocardiogram (ECG) parameters were also performed.
Safety analyses conducted in the safety set constituted summaries for AEs occurring during on-treatment period with number and percentage of patients having at least 1 AE. Summaries presented overview of AEs and deaths (number and percentage of patients who died with any AE, SAE, dose reductions/interruptions, AE leading to discontinuation), SAEs, AEs related to study treatment, AEs leading to treatment discontinuation, dose interruption/adjustment or fatal outcome. Additionally, in combination part, summaries were produced using all treatment-related AEs starting or worsening during the on-treatment or extended safety follow-up periods (within 150 days after the date of last administration of study treatment).

FGF19-FGFR4 signaling = experiment: Blood-based pharmacodynamic biomarkers (C4, total bile acids, FGF19, cholesterol); assay type: in vivo, human
Protocol: An immunohistochemistry (IHC) assay to detect FGF19 was used retrospectively on remnant samples and the association of FGF19 expression levels with best change in sum of diameters (SOD) for RECIST v1.1 in the single-agent was evaluated. […] FGF19 was quantified using a capture-ELISA assay from R&D System, Cat. nr. DF1900, with a LLOQ of 27.2 pg/mL and ULOQ of 1096.3 pg/mL. C4: 7α-Hydroxy-4-cholesten-3-one was determined using an LC-MS/MS method. The concentration of total bile acids were measured using the colorimetric diazyme’s enzymatic total bile acids assay.

[2] = tested on: CYP7A1 and DUSP6 transcript levels in tumor biopsies; experiment: Tumor biopsy RNAseq pharmacodynamics; assay type: in vivo, human
Protocol: Additionally, exploratory biomarker endpoints to assess FGF19-FGFR4 signaling inhibition by FGF401 included temporal profiling of C4, FGF19, total bile acid and total cholesterol levels in blood, and CYP7A1 and DUSP6 transcript levels in tumor biopsies. An immunohistochemistry (IHC) assay to detect FGF19 was used retrospectively on remnant samples and the association of FGF19 expression levels with best change in sum of diameters (SOD) for RECIST v1.1 in the single-agent was evaluated.
For RNAseq based studies, extracted total RNA was depleted from ribosomal RNA using RNAseH. The rRNA-depleted sample was then prepared for sequencing using the TruSeq RNA v.2 Library Preparation kit (Illumina). After pooling the captured library using unique adapter index sequences and applying the pool to a sequencing flow cell, they were sequenced using Illumina v.4 chemistry and paired-end 100-bp reads. Sequence data were aligned to the reference human genome (build hg19) using STAR v.2.4.0e. Mapped reads were then used to quantify transcripts with HTSeq v.0.6.1p1 [28] and RefSeq GRCh38 v.82 gene annotation. Gene expression data were normalized using the trimmed mean of M-value normalization as implemented in the edgeR – Bioconductor package v.3.20.9 [29].

phospho-FGFR4 = conditions: preclinical; read-out: in vivo phospho-FGFR4 IC90; cited from earlier work
[3] = tested on: HCC and gastric cancer cell lines expressing FGFR4, KLB and FGF19; conditions: excellent selectivity over non-sensitive tumor models; cited from earlier work
[4] = tested on: cell-line derived HCC xenografts and patient-derived HCC xenografts; conditions: dose-dependent manner; cited from earlier work
[5] = single agent, All patients N = 160
[6] = most patients across the FGF401 dose levels
[7] = most on-treatment biopsies obtained at C1D8

COCCNc1cc(NC(=O)N2CCCc3cc(CN4CCN(C)CC4=O)c(C=O)nc32)ncc1C#N [FGF401, roblitinib]
patients who died on treatment because of existing cancer ([1]; 17 patients of 160): 10.6%
discontinued treatment because of progressive disease ([1]; 130 of 160 patients): 81%
patients who died on treatment ([1]; Twenty patients of 160): 12.5%
patients who died on treatment because of other reasons ([1]; gastric bleeding, multiple organ dysfunction syndrome, unknown cause): 3 patients
AEs leading to FGF401 discontinuation, All grades ([1]; human, in vivo): 18 (11.3) n (%)
AEs leading to FGF401 discontinuation, Grade 3 or 4 ([1]; human, in vivo): 13 (8.1) n (%)
AEs leading to FGF401 discontinuation, Treatment related, All grades ([1]; human, in vivo): 12 (7.5) n (%)
AEs leading to FGF401 discontinuation, Treatment related, Grade 3 or 4 ([1]; human, in vivo): 8 (5.0) n (%)
AEs leading to FGF401 dose adjustment/interruption, All grades ([1]; human, in vivo): 80 (50.0) n (%)
AEs leading to FGF401 dose adjustment/interruption, Grade 3 or 4 ([1]; human, in vivo): 58 (36.3) n (%)
AEs leading to FGF401 dose adjustment/interruption, Treatment related, All grades ([1]; human, in vivo): 47 (29.4) n (%)
AEs leading to FGF401 dose adjustment/interruption, Treatment related, Grade 3 or 4 ([1]; human, in vivo): 34 (21.3) n (%)
ALT increased leading to FGF401 discontinuation ([1]; human, in vivo): 3.8%
AST increased leading to FGF401 discontinuation ([1]; human, in vivo): 1.9%
Constipation, Grade 3/4 ([1]; human, in vivo): 0 n (%)
Decreased appetite, Grade 3/4 ([1]; human, in vivo): 0 n (%)
Edema peripheral, Grade 3/4 ([1]; human, in vivo): 0 n (%)
Grade 3 or 4 AEs suspected to be related to study treatment ([1]; human, in vivo): 31.9%
Grade 3 or 4 related ALT elevated ([1]; human, in vivo): 15.0%
Grade 3 or 4 related AST increased ([1]; human, in vivo): 18.8%
Grade 3 or 4 related diarrhea ([1]; human, in vivo): 5.0%
Nausea, Grade 3/4 ([1]; human, in vivo): 0 n (%)
Primary reason for end of treatment: Adverse event ([1]; human, in vivo): 18 (11.3) n (%)
Pyrexia, Grade 3/4 ([1]; human, in vivo): 0 n (%)
SAEs, Treatment related, Grade 3 or 4 ([1]; human, in vivo): 7 (4.4) n (%)
blood bilirubin increased leading to FGF401 discontinuation ([1]; human, in vivo): 2.5%
dose interruption due to AEs ([1]; human, in vivo): 52.5%
dose reduction due to AEs ([1]; human, in vivo): 18.1%
patients with a grade 3 or 4 AE ([1]; human, in vivo): 72.5%
patients with diarrhea ([1]; human, in vivo): 73.8%
patients with dose interruption ([1]; human, in vivo): 60.6%
patients with dose reduction ([1]; human, in vivo): 21.3%
patients with increased ALT ([1]; human, in vivo): 43.8%
patients with increased AST ([1]; human, in vivo): 47.5%
Primary reason for end of treatment: Death ([1]; single agent N=160): 2 (1.3) n (%)
Primary reason for end of treatment: Progressive disease ([1]; single agent N=160): 130 (81.3) n (%)
AEs, All grades [1, 5]: 160 (100) n (%)
AEs, Grade 3 or 4 [1, 5]: 116 (72.5) n (%)
AEs, Treatment related, All grades [1, 5]: 148 (92.5) n (%)
AEs, Treatment related, Grade 3 or 4 [1, 5]: 51 (31.9) n (%)
Fatal SAEs, All grades [1, 5]: 3 (1.9) n (%)
Fatal SAEs, Grade 3 or 4 [1, 5]: 3 (1.9) n (%)
Fatal SAEs, Treatment related, All grades [1, 5]: 0 n (%)
Fatal SAEs, Treatment related, Grade 3 or 4 [1, 5]: 0 n (%)
SAEs, All grades [1, 5]: 70 (43.8) n (%)
SAEs, Grade 3 or 4 [1, 5]: 55 (34.4) n (%)
SAEs, Treatment related, All grades [1, 5]: 8 (5.0) n (%)
dose-response analyses with the pharmacodynamic biomarkers (FGF19-FGFR4 signaling; all doses tested): did not identify any associations; also recorded: without a clear dose response
change in C4 level (FGF19-FGFR4 signaling; [6]): Increase; also recorded: treatment-induced elevation
change in total bile acid level (FGF19-FGFR4 signaling; [6]): Increase; also recorded: treatment-induced elevation
change in circulating FGF19 (FGF19-FGFR4 signaling; single-agent arm): Increase
change in total cholesterol (FGF19-FGFR4 signaling; single-agent arm): decrease
CYP7A1 transcript in on-treatment versus pretreatment biopsies [2, 7]: upregulation
DUSP6 transcript in on-treatment versus pretreatment biopsies [2, 7]: downregulation
changes in immune infiltration after FGF401 treatment ([2]; signatures summarized with GSVA): did not observe significant changes
IC90 (phospho-FGFR4): 52.1 nM
growth of cell lines [3]: inhibits growth
tumor response in xenografts [4]: robustly induces regression/stasis
